Experiments:
Aβ1-42 = biological target: T1, Aβ1-42 (Homo sapiens, UniProt P05067); experiment: Kinetic Thioflavin T (ThT) aggregation assay of Aβ1-42; type: biochemical; details: 20 μM Aβ1-42, kinetic ThT assay
T1 construct: Aβ^1-42 (AnaSpec, lot 45685); purchased AnaSpec
Experimental: Aβ^1-42 (1.0 mg) was either pretreated with HFIP in the same manner as Aβ^1-40 or this step was omitted. After removing HFIP, when appropriate, Aβ^1-42 was dissolved in 1% NH3 (aq.) (200 μL) and sonicated for 1 min. The solution was diluted with Tris-HCl (5.7 mL, 20 mM, pH 7.4), the pH adjusted to 7.4 with concentrated HCl (aq.) and the solution filtered using a syringe filter (0.2 μm). Prior to use in the ThT aggregation assay, the solution was diluted with an equal volume of 8 μM Thioflavin T (ThT) in Tris-HCl (20 mM, pH 7.4, 300 mM NaCl).
(§1) Aliquots (200 μL) of Aβ^1-40, Aβ^1-42, tau441 or α-synuclein with ThT or ThS were added to wells of a black polystyrene 96-well plate, followed by 2 μL of a compound in DMSO (various concentrations), or DMSO alone (controls). For α-synuclein, sodium dodecyl sulfate solution (2.0 μL, 30 mM) was also added to each well to induce aggregation. Incubations were performed in triplicate and were taken to contain 20 μM Aβ^1-40 or Aβ^1-42, 6 μM tau441 or 4 μM α-synuclein. Plates were covered with clear polystyrene lids and incubated at 37° C. in a GENios microplate reader obtained from Tecan Group Limited, Mannedorf, Zurich. For Aβ^1-40, tau441 and α-synuclein, fluorescence readings (λex=450 nm, λem=480 nm) were taken every 15 min., after first shaking at high intensity for 15 sec. and allowing to settle for 10 sec. before each reading. For Aβ^1-42, readings were taken every 5 min.
(§2) The absorbance of each compound was measured under the conditions used during testing, though on ten times the scale (2 mL), to ensure no significant quenching interfered with the assay. This step was also used to identify whether compounds were completely soluble under testing conditions.
FIG. 7 depicts inhibition of Aβ^1-42 aggregation by various synthesized bi-aromatic compounds and positive controls morin (Ono K, Yoshiike Y, Takashima A, Hasegawa K, Naiki H, Yamada M. 2003. J Neurochem 87:172-81) and RS-0406 (Walsh D M, Townsend M, Podlisny M B, Shankar G M, Fadeeva J V, Agnaf O E, Hartley D M, Selkoe D J. 2005. J Neurosci 25:2455-62) in the kinetic ThT assay. Same conditions as for Aβ^1-40, FIG. 1. Compound concentrations were 100 μM in (A), 20 μM in (B), except for RS-0406, which was tested at 100 μM, and 20 μM in (C).

Aβ1-40 [1] = biological target: T2, Aβ1-40 (Homo sapiens, UniProt P05067); experiment: Kinetic Thioflavin T (ThT) aggregation assay of Aβ1-40; type: biochemical; details: 20 μM Aβ1-40, 4 μM ThT, pH 7.4, 37° C., kinetic ThT assay
T2 construct: Aβ^1-40 (AnaSpec, San Jose, Calif., lots 14212, 34862 and 34889); purchased AnaSpec, San Jose, Calif
T2 sequence (P05067 672-711 limits assumed): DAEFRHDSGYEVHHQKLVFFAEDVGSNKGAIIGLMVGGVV
Experimental: Aβ^1-40 (1.0 mg) was pre-treated in a 1.5 mL microfuge tube with 1,1,1,3,3,3-hexafluoroisopropanol (HFIP, 1 mL) and sonicated for 20 min. to disassemble any pre-formed Aβ aggregates. The HFIP was removed with a stream of argon and the Aβ dissolved in Tris base (5.8 mL, 20 mM, pH 10.5). The pH was adjusted to 7.4 with concentrated HCl and the solution filtered using a syringe filter (0.2 μm). This solution was used for circular dichroism studies or diluted with an equal volume of 8 μM Thioflavin T (ThT) in Tris-HCl (20 mM, pH 7.4, 300 mM NaCl) for the ThT aggregation assay.
as §1, §2
FIG. 1 depicts the inhibition of Aβ^1-40 aggregation, as measured by Thioflavin T (ThT) fluorescence, by directly-linked 3,3′-bis-indolyl compounds 0c-i (A), other bis-indoles (B), aza-indole-containing compounds (C), indole-phenols (D), indole-5-carboxylic acid-containing bi-aromatics (E), and naphthol-containing bi-aromatics (F). Aggregation conditions: 20 μM Aβ^1-40 incubated in covered black 96-well polystyrene microplates with 4 μM ThT, pH 7.4, Tris-HCl (20 mM), 150 mM NaCl, 1% DMSO. Compound concentrations are 200 μM (A,B, except where otherwise noted), 100 μM (E), 20 μM (F), or as indicated (C,D). Plates heated at 37° C. in Tecan Genios microplate reader. All incubations performed in triplicate. Prior to experiment, Aβ^1-40 pretreated with 1,1,1,3,3,3-hexafluoroisopropanol (HFIP). Fluorescence readings: fluorescence measured every 15 min. (λex=450 nm, λem=480 nm) after shaking for 15 sec. and pausing 10 sec. before taking measurement. Values are the mean of three replicates. Error bars, omitted for clarity in (B), represent standard deviation of the mean.

Aβ1-40 [2] = biological target: T2, Aβ1-40; experiment: Circular dichroism studies of Aβ1-40; type: biochemical; details: 40 μM Aβ1-40, 200 μM compound, pH 7.4, 37° C.
Experimental: Aliquots (220 μL) of pretreated Aβ^1-40 (40 μM in 20 mM Tris-HCl, pH 7.4) were added directly to 1 mm quartz circular dichroism (CD) cells, followed by 2.2 μL compound (of varying concentration) in methanol or methanol alone (controls). Solutions were incubated at 37° C. for up to 6 days. CD scans were performed on a J-810 spectropolarimeter (obtained from Jasco Corporation, Tokyo, Japan) between 190 and 250 nm, with a resolution of 0.1 nm and bandwidth of 1 nm. Ten scans were obtained for each reading. Spectra had background CD of the buffer subtracted and were left unsmoothed. Readings were performed at 37° C.
FIG. 6 depicts circular dichroism (CD) of Aβ^1-40 alone (A) and in the presence of 0j (B) and morin (C). Conditions: 40 μM Aβ^1-40, 200 μM compound (B,C), pH 7.4, Tris-HCl (20 mM), 1% MeOH. Prior to experiment, Aβ^1-40 pretreated with 1,1,1,3,3,3-hexafluoroisopropanol (HFIP).

[3] = test system: patients with advanced senile dementia; details: daily Trp administration (24 mg/kg); cited from earlier work
[4] = test system: patients with mild to moderate Alzheimer's disease (AD); experiment: Phase IV double-blind randomized placebo-controlled clinical trial of L-tryptophan (Trp); type: in vivo, human
Experimental: A phase IV clinical trial of L-tryptophan (Trp) was carried out to evaluate the amino acid's effect on cognitive abilities in patients with mild to moderate Alzheimer's disease (AD). An earlier trial has been performed which studied Trp administration in patients suffering from AD [Bentham, P W. International Clinical Psychopharmacology, 1990, 5: 261-72]. The present trial expects the possible binding of Trp to the HHQK region of Aβ [D Giulian et al. (1998). Journal of Biological Chemistry 273:29719-26] and subsequent disruption of Aβ plaque formation, whereas the earlier trial was based on neurotransmitter replacement therapy. By administering Trp, levels of its metabolite […], better known as serotonin, were expected to increase, thereby countering deficits of the neurotransmitter experienced by those suffering from AD [Siegel, G J; Agranoff, B W; Albers, R W; Molinoff, P B, Basic Neurochemistry. Fifth ed. 1994, New York: Raven Press, 1054 pp]. Also providing motivation for the trial may have been earlier accounts that Trp was seen to benefit elderly patients with mental disorders [Shaw, D M; Tidmarsh, S F; Karajgi, B M; Sweeney, E A; Williams, S; Elameer, M; Twining, C. British Journal of Psychiatry, 1981, 139: 580-2, Lehmann, J; Persson, S; Walinder, J; Wallin, L. Acta Psychiatrica Scandinavica, 1981, 64: 123-31].
Twelve patients were enrolled in the current clinical trial. Patients were administered 1 g Trp (n=8) or placebo (n=4) twice a day for six months, and their cognitive abilities were assessed, using standardized tests, at baseline, three months and six months. All enrollment and testing was carried out at the Kingston General Hospital, Kingston, Ontario, Canada, under the supervision of the principal investigator, D. F. Weaver, M.D., Ph.D (the protocol is attached as Appendix A). The primary endpoint of the double-blind trial was to determine whether patients receiving Trp outperformed the controls, either by experiencing an improvement in cognition or a reduction in deterioration in cognitive abilities relative to the placebo group.
Eligible participants were those who met the clinical criteria of probable Alzheimer's disease as described in the Diagnostic and Statistical Manual of Mental Disorders, fourth edition (DSM-IV) [Anonymous, Diagnostic and Statistical Manual of Mental Disorders, 4th Edition (DSM-IV). 1994, Washington, D.C.: American Psychiatric Association] and in the National Institute of Neurologic and Communicative Disorders and Stroke and the Alzheimer's Disease Related Disorders Association (NINCDS-ADRDA) [McKhann, G; Drachman, D; Folstein, M; Katzman, R; Price, D; Stadlan, E M. Neurology, 1984, 34: 939-44]. Inclusion criteria also included: mild to moderate severity of dementia, as reflected by a Mini-Mental State Examination (MMSE) [Folstein, M F; Folstein, S E; McHugh, P R. J Psychiatr Res, 1975, 12: 189-98] score of 14 to 26; minimum one-year duration of symptoms; minimum age of 50 years; living at home or in an institution provided they had caregivers capable of attending each clinic visit and ensuring the administration of medication; able to perform the psychometric tests required; reasonably good nutritional status; vital signs (blood pressure and heart rate in sitting and standing positions), urinalysis, physical examination, and neurological evaluation must yield results within normal limits or determined as not clinically significant by the study physician for the patient's age and sex.
This study was a 6-month, double-blind randomized trial in which eligible participants were randomly assigned to receive either Trp (1000 mg, twice daily) or an identical-appearing placebo. Recruiters were unaware of the assignment. […]

[5] = test system: patients suffering from AD; details: ten patients, three months; cited from earlier work
patients with dementia = details: one month, once daily dosing, ratings of behaviour and functional abilities; cited from earlier work
[6] = Trp 1 g twice a day (n = 8), 6 months, negative change indicates improvement
[7] = Trp 1 g twice a day (n = 8), 6 months, positive change indicates improvement
[8] = Trp (n = 8) vs. placebo (n = 4), 3 months
[9] = Trp (n = 8) vs. placebo (n = 4), 6 months

T1 sequence (P05067 672-713 limits assumed): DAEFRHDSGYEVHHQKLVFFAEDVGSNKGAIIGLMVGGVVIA

SMILES: O=C(O)c1ccc2[nH]cc(-c3c[nH]c4ccc(O)cc34)c2c1 [0j, 3-(5-Hydroxy-indol-3-yl)-indole-5-carboxylic Acid]
- inhibition of Aβ1-42 aggregation, as measured by ThT fluorescence (Aβ1-42): inhibiting aggregation
- inhibition of Aβ1-40 aggregation, as measured by Thioflavin T (ThT) fluorescence (Aβ1-40 [1]): inhibition
- random coil (RC)→β-sheet transition of Aβ1-40 by circular dichroism (Aβ1-40 [2]): inhibited to a greater extent

SMILES: N[C@@H](Cc1c[nH]c2ccccc12)C(=O)O [Trp, L-tryptophan]
- patients with “unequivocal improvement in blind global assessment” [3]: six of 29
- ADAS-Cog, mean (SE) change from baseline after 3 months ([4]; Trp 1 g twice a day (n = 8), 3 months, negative change indicates improvement): −0.8 (0.9)
- MMSE, mean (SE) change from baseline after 3 months ([4]; Trp 1 g twice a day (n = 8), 3 months, positive change indicates improvement): 0.8 (0.4)
- ADAS-Cog, mean (SE) change from baseline after 6 months [4, 6]: −2.8 (1.4)
- FAQ, mean (SE) change from baseline after 6 months [4, 6]: 3.2 (2.0)
- NPI, mean (SE) change from baseline after 6 months [4, 6]: 3 (3)
- Clock-drawing, mean (SE) change from baseline after 6 months [4, 7]: 1.1 (0.4)
- DAD, mean (SE) change from baseline after 6 months [4, 7]: 1.5 (1.8)
- MMSE, mean (SE) change from baseline after 6 months [4, 7]: 1.8 (0.5)
- ADCS-CGIC, mean (SE) score at 6 months ([4]; Trp 1 g twice a day (n = 8), score at 6 months, not change from baseline, lower score indicates improvement): 3.6 (0.3)
- adverse events reported by patients ([4]; Trp 1 g twice a day, 6 months): No adverse events
- ADAS-Cog, treatment difference (Trp vs. placebo) after 3 months [4, 8]: 1.3
- MMSE, treatment difference (Trp vs. placebo) after 3 months [4, 8]: 2.0
- ADAS-Cog, treatment difference (Trp vs. placebo) after 6 months [4, 9]: −6.3
- ADCS-CGIC, treatment difference (Trp vs. placebo) at 6 months [4, 9]: 2.9
- Clock-drawing, treatment difference (Trp vs. placebo) after 6 months [4, 9]: 2.9
- DAD, treatment difference (Trp vs. placebo) after 6 months [4, 9]: 12.8
- FAQ, treatment difference (Trp vs. placebo) after 6 months [4, 9]: −2.0
- MMSE, treatment difference (Trp vs. placebo) after 6 months [4, 9]: 5.0
- NPI, treatment difference (Trp vs. placebo) after 6 months [4, 9]: −19
- patients depressed (Cornell Depression Index score of >5) after 6 months of treatment ([4]; Trp group (two patients), 6 months): 25%
- sleep problems (score of >4 on the Pittsburgh Sleep Quality) ([4]; at baseline or at 6 months): No sleep problems
- correlation between the increase in Trp plasma levels and the increase in cognitive test scores [5]: statistically significant correlation
- benefit in patients with dementia (patients with dementia): of no benefit
